The inhibition is the relative decrease from the control value, in per cent.

23 molecules from patent US8435978B2, “Substituted sulfonamide compounds” (Gruenenthal GmbH, priority 2006, dated 2013) can be followed below.

The target in one assay is T1, human B1R receptor (Homo sapiens, UniProt P46663).
T1 construct: host or cells: CHO K1 cells (Chinese hamster ovary), stably transfected
T1 sequence (P46663 1-353): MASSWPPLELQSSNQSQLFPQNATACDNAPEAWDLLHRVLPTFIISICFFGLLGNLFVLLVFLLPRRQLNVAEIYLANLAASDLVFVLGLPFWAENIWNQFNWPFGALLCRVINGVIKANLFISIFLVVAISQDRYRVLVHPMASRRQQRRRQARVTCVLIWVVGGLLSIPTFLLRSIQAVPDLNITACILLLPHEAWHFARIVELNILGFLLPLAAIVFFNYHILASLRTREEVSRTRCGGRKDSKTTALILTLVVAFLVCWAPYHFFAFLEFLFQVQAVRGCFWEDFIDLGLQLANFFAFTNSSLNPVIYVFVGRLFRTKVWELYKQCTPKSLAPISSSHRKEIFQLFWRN
In words: Functional study on the bradykinin receptor 1 (B1R), FLIPR Ca2+ assay, hB1R cells. It is filed as cell-based. The settings on record: agonist Lys-Des-Arg9-bradykinin 0.5 nM, % inhibition compared with the maximum achievable inhibition; for inhibition at 10 µM: CHO-K1, test substance 10 μM, read-out: B1R Antagonism, human [10 μM] % Inhibition; for B1R Antagonism, human [10 μM] % Inhibition: test substance 10 μM, hB1R CHO K1 cells. Put shortly:
(§1)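 Readout: peak Fluo-4 Ca2+ fluorescence, FLIPR. Stable CHO K1 hB1R or rB1R cells; cpd 10 μM, 10 min preincubation, then agonist (hB1R: Lys-Des-Arg9-BK 0.5 nM; rB1R: Des-Arg9-BK 100 nM). Value = % inhibition relative to maximal achievable inhibition.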

In the next assay the target is T2, B1R receptor of the rat (Rattus norvegicus, UniProt P97583).
T2 construct: host or cells: CHO K1 cells (Chinese hamster ovary), stably transfected
T2 sequence (P97583 1-337): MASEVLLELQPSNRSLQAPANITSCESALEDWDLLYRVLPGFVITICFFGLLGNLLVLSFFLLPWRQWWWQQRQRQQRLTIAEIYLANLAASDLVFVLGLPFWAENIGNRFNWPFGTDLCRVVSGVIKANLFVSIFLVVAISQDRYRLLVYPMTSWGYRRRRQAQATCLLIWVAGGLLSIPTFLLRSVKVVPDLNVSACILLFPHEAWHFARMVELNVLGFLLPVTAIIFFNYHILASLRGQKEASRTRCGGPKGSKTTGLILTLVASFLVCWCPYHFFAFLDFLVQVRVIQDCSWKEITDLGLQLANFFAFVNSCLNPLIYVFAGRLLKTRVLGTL
The experiment in a line: Functional study on the bradykinin receptor 1 (B1R), FLIPR Ca2+ assay, rB1R cells. The following applies: agonist Des-Arg9-bradykinin 100 nM, % inhibition compared with the maximum achievable inhibition; for inhibition at 10 µM: CHO-K1, test substance 10 μM, read-out: B1R Antagonism, rat [10 μM] % Inhibition; for B1R Antagonism, rat [10 μM] % Inhibition: test substance 10 μM, rB1R CHO K1 cells. In kind it is cell-based. Put shortly:
as §1

Turning to `COc1cc(C)c(S(=O)(=O)N2CCCCC2COCC(=O)NCCCN2CCCCC2)c(C)c1` (stereo not shown) [Example 413, 2-((1-(4-methoxy-2,6-dimethylphenylsulfonyl)piperidin-2-yl)methoxy)-N-(3-(piperidin-1-yl)propyl)acetamide], the values for the inhibition at 10 µM at human B1R receptor and on B1R receptor of the rat were 99.9% and 103%, respectively.
Consider “N-(4-(2-(1H-benzo[d]imidazol-2-yl)ethyl)phenyl)-2-((1-(4-methoxy-2,6-dimethylphenylsulfonyl)pyrrolidin-2-yl)methoxy)acetamide [Example 472]”, for which the “B1R Antagonism, human [10 μM] % Inhibition” value on human B1R receptor is on record as 92.06%. On B1R receptor of the rat, the “B1R Antagonism, rat [10 μM] % Inhibition” value is recorded as 101.17%.
For `Cc1cc(C)c(S(=O)(=O)N2CCCCC2COCC(=O)N2CCN(C3CCN(C)CC3)CC2)c(C)c1` (stereo not shown) [Example 107, 2-((1-(mesitylsulfonyl)piperidin-2-yl)methoxy)-1-(4-(1-methylpiperidin-4-yl)piperazin-1-yl)ethanone], the inhibition at 10 µM at human B1R receptor and at B1R receptor of the rat was 102% each time.
In the case of `COc1cc(C)c(S(=O)(=O)N2CCCCC2COCC(=O)N2CCC(N3CCN(C)CC3)CC2)c(C)c1` (stereo not shown) [Example 524, 2-((1-(4-methoxy-2,6-dimethylphenylsulfonyl)piperidin-2-yl)methoxy)-1-(4-(4-methylpiperazin-1-yl)piperidin-1-yl)ethanone], the “B1R Antagonism, human [10 μM] % Inhibition” value at human B1R receptor was 101.62%. Besides, on B1R receptor of the rat, the “B1R Antagonism, rat [10 μM] % Inhibition” value is recorded as 100.66%.
Consider `O=C(COCC1CCCN1S(=O)(=O)c1c(Cl)cc(Cl)cc1Cl)NCCN1CCCC1` (stereo not shown) [Example 339, N-(2-(pyrrolidin-1-yl)ethyl)-2-((1-(2,4,6-trichlorophenylsulfonyl)pyrrolidin-2-yl)methoxy)acetamide], for which the inhibition at 10 µM on human B1R receptor worked out at 77.5%; at B1R receptor of the rat it was 41.6%.
The like results for `COc1cc(C)c(S(=O)(=O)N2CCCC2COCC(=O)NCc2ccc(N3CCN(C)CC3)cc2)c(C)c1` (stereo not shown) [Example 18, 2-[1-(4-methoxy-2,6-dimethyl-phenylsulfonyl)-pyrrolidin-2-ylmethoxy]-N-[4-(4-methyl-piperazin-1-yl)-benzyl]-acetamide] were, in that order, 95.3% and 110%.
On to `O=C(COCC1CCCN1S(=O)(=O)c1c(Cl)cccc1Cl)NCC1CCCN(Cc2ccccc2)C1` (stereo not shown) [Example 323, N-((1-benzylpiperidin-3-yl)methyl)-2-((1-(2,6-dichlorophenylsulfonyl)pyrrolidin-2-yl)methoxy)acetamide], for which the results for the inhibition at 10 µM at human B1R receptor and at B1R receptor of the rat were 105% and 88.1%, respectively.
Turning to `O=C(COCC1CCCN1S(=O)(=O)c1c(Cl)cc(Cl)cc1Cl)N1CCC(CCN2CCCCC2)CC1` (stereo not shown) [Example 331, 1-(4-(2-(piperidin-1-yl)ethyl)piperidin-1-yl)-2-((1-(2,4,6-trichlorophenylsulfonyl)pyrrolidin-2-yl)methoxy)ethanone], the results for the inhibition at 10 µM on human B1R receptor and on B1R receptor of the rat were 106% and 101%, respectively.
On to `COc1cc(C)c(S(=O)(=O)N2CCCC2COCC(=O)N2CCN(c3ccccc3OC)CC2)c(C)c1` (stereo not shown) [Example 491, 2-((1-(4-methoxy-2,6-dimethylphenylsulfonyl)pyrrolidin-2-yl)methoxy)-1-(4-(2-methoxyphenyl)piperazin-1-yl)ethanone], for which the inhibition at 10 µM at human B1R receptor came to 96.3%; at B1R receptor of the rat, 97.9%.
As to `COc1cc(C)c(S(=O)(=O)N2CCCC2COCC(=O)N2CCN(Cc3ccc(Br)cc3)CC2)c(C)c1` (stereo not shown) [Example 350, 1-(4-(4-bromobenzyl)piperazin-1-yl)-2-((1-(4-methoxy-2,6-dimethylphenylsulfonyl)pyrrolidin-2-yl)methoxy)ethanone], the inhibition at 10 µM at human B1R receptor and at B1R receptor of the rat was 104% throughout.
Regarding `CN(C)CCN(Cc1ccccc1)C(=O)COCC1CCCCN1S(=O)(=O)c1c(Cl)cccc1Cl` (stereo not shown) [Example 489, N-benzyl-2-((1-(2,6-dichlorophenylsulfonyl)piperidin-2-yl)methoxy)-N-(2-(dimethylamino)ethyl)acetamide], the inhibition at 10 µM on human B1R receptor is 99.3%; on B1R receptor of the rat, 100%.
For the molecule `COc1cc(C)c(S(=O)(=O)N2CCCCC2COCC(=O)NCc2ccc(CN(C)C)cc2)c(C)c1` (stereo not shown) [Example 11, N-(4-dimethylaminomethyl-benzyl)-2-[1-(4-methoxy-2,6-dimethyl-phenylsulfonyl)-piperidin-2-ylmethoxy]-acetamide], the values for the inhibition at 10 µM at human B1R receptor and at B1R receptor of the rat were 99.6% and 106%, respectively.
In the case of `COc1cc(C)c(S(=O)(=O)N2CCCC2COCC(=O)N(C)C(CN2CCN(C)CC2)c2ccccc2)c(C)c1` (stereo not shown) [Example 446, 2-((1-(4-methoxy-2,6-dimethylphenylsulfonyl)pyrrolidin-2-yl)methoxy)-N-methyl-N-(2-(4-methylpiperazin-1-yl)-1-phenylethyl)acetamide], the inhibition at 10 µM was 95% on human B1R receptor and 99.8% on B1R receptor of the rat.
The corresponding values for `COc1cc(C)c(S(=O)(=O)N2CCCC2COCC(=O)Nc2cccc(CN3CCCCC3)c2)c(C)c1` (stereo not shown) [Example 471, 2-((1-(4-methoxy-2,6-dimethylphenylsulfonyl)pyrrolidin-2-yl)methoxy)-N-(3-(piperidin-1-ylmethyl)phenyl)acetamide] are 103% and 98.8%.
The corresponding values for `COc1cc(C)c(S(=O)(=O)N2CCCCC2COCC(=O)N2CCC(CCN3CCCCC3)CC2)c(C)c1` (stereo not shown) [Example 533, 2-((1-(4-methoxy-2,6-dimethylphenylsulfonyl)piperidin-2-yl)methoxy)-1-(4-(2-(piperidin-1-yl)ethyl)piperidin-1-yl)ethanone] are 106% and 108%.
As to `O=C(COCC1CCCCN1S(=O)(=O)c1cccc2ccccc12)N1CCC(N2CCCCC2)CC1` (stereo not shown) [Example 235], the “B1R Antagonism, human [10 μM] % Inhibition” value on human B1R receptor turned out to be 102.3%. Further, the “B1R Antagonism, rat [10 μM] % Inhibition” value on B1R receptor of the rat is 83.46%.
Take `COc1cc(C)c(S(=O)(=O)N2CCCC2COCC(=O)NCc2ccc(CN3CCCC3)cc2)c(C)c1` (stereo not shown) [Example 299, 2-((1-(4-methoxy-2,6-dimethylphenylsulfonyl)pyrrolidin-2-yl)methoxy)-N-(4-(pyrrolidin-1-ylmethyl)benzyl)acetamide]: the inhibition at 10 µM was found to be 106% at human B1R receptor and 103% on B1R receptor of the rat.
The like results for `Cc1cc(C)c(S(=O)(=O)N2CCCCC2COCC(=O)N2CCN(c3nc(Cc4ccccc4)cs3)CC2)c(C)c1` (stereo not shown) [Example 234, 1-(4-(4-benzylthiazol-2-yl)piperazin-1-yl)-2-((1-(mesitylsulfonyl)piperidin-2-yl)methoxy)ethanone] were, in that order, 52% and 103%.
As to `COc1cc(C)c(S(=O)(=O)N2CCCCC2COCC(=O)NCc2ccc(N3CCOCC3)cc2)c(C)c1` (stereo not shown) [Example 21, 2-[1-(4-methoxy-2,6-dimethyl-phenylsulfonyl)-piperidin-2-ylmethoxy]-N-(4-morpholin-4-yl-benzyl)-acetamide], the “B1R Antagonism, human [10 μM] % Inhibition” value at human B1R receptor is reported as 93.47%. Moreover, the inhibition at 10 µM on B1R receptor of the rat worked out at 108%.
For the molecule `CCc1ccc(CC2CCCCN2C(=O)COCC2CCCCN2S(=O)(=O)c2c(C)cc(C)cc2C)nc1` (stereo not shown) [Example 228, 1-(2-((5-ethylpyridin-2-yl)methyl)piperidin-1-yl)-2-((1-(mesitylsulfonyl)piperidin-2-yl)methoxy)ethanone], the results for the inhibition at 10 µM at human B1R receptor and at B1R receptor of the rat were 88.6% and 99.8%, respectively.
The corresponding values for `COc1cc(C)c(S(=O)(=O)N2CCCC2COCC(=O)N2CCN(CCN(C(C)C)C(C)C)CC2)c(C)c1` (stereo not shown) [Example 270, 1-(4-(2-(diisopropylamino)ethyl)piperazin-1-yl)-2-((1-(4-methoxy-2,6-dimethylphenylsulfonyl)pyrrolidin-2-yl)methoxy)ethanone] are 104% and 93.4%.
As for `COc1cc(C)c(S(=O)(=O)N2CCCCC2COCC(=O)N2CCCCCC2c2ccc(N(C)C)cc2)c(C)c1` (stereo not shown) [Example 400, 1-(2-(4-(dimethylamino)phenyl)azepan-1-yl)-2-((1-(4-methoxy-2,6-dimethylphenylsulfonyl)piperidin-2-yl)methoxy)ethanone], the figures for the inhibition at 10 µM at human B1R receptor and on B1R receptor of the rat were 62% and 102%, respectively.
The like results for `O=C(COCC1CCCCN1S(=O)(=O)c1ccc(Cl)c(Cl)c1)N1CCN(c2ccccc2)CC1` (stereo not shown) [Example 56, 2-[1-(3,4-dichloro-phenylsulfonyl)-piperidin-2-ylmethoxy]-1-(4-phenyl-piperazin-1-yl)-ethanone] were, in that order, 62.7% and 0%.
